Results reported in US20190210973A1, “COMPOUNDS AND METHODS FOR TREATMENT OF CYSTIC FIBROSIS” (The Curators of the University of Missouri, priority 2018, published 2019).

Assays:
delF508-CFTR = delF508-CFTR (Homo sapiens, UniProt P13569, DEL508-508); assay: Patch-clamp recording of delF508-CFTR currents in excised inside-out patches of transfected CHO cells; assay type: cell-based
Source text: (§1) Patch-clamp is considered the gold standard for assessing directly ion channel function in real time. By attaching a glass microelectrode on the surface of a cell, it is possible to record the currents generated by channels proteins that are present in this tiny “patch” of cell membranes. Since millions of ions pass through a single ion channel pore per second, the resulting microscopic currents from a single channel protein molecule can be detected with modem patch-clamp amplifiers. As ion channels (a conductor in electricity term) are arranged in parallel in the cell membrane, it is also possible to assay a group of ion channels by monitoring macroscopic currents representing the sum of currents from individual channels. Microscopic recordings allow artisans to examine exquisitely the effects of compounds on the Po and kinetic parameters of CFTR channels; whereas macroscopic recordings provide an assay not only to quantify the overall effects of compounds on N×Po×i, but also monitor the stability of the CFTR currents in real time.
(§2) Chinese hamster ovary (CHO) cells were grown at 37° C. in Dulbecco's modified Eagle's medium supplemented with 10% fetal bovine serum. Cells were subcultured into 35-mm tissue culture dishes 1 day before transfection. PolyFect transfection reagent (QIAGEN) was used to cotransfect CFTR cDNA and pEGFP-C3 (Takara Bio Inc.), which encodes green fluorescence proteins, into CHO cells. After transfection, cells were incubated at 27° C. for at least 2 days before electrophysiological experiments were performed.
(§3) Glass chips carrying the transfected cells were transferred to a chamber located on the stage of an inverted microscope (IX51; Olympus). Borosilicate capillary glasses were used to make patch pipettes using a two-stage micropipette puller (PP-81, Narishige, Japan). The pipettes were polished with a homemade microforge to a resistance of 2-4 MΩ in the bath solution. Once the seal resistance reached >40 GΩ, membrane patches were excised into an inside-out mode. Subsequently, the pipette was moved to the outlet of a three-barrel perfusion system and perfused with 25 IU PKA and 2 mM ATP until the CFTR current reached a steady state. A patch-clamp amplifier (EPC10, HEKA, Germany) was used to record electrophysiological data at room temperature. The data were filtered online at 100 Hz with an eight-pole Bessel filter (LPF-8; Warner Instruments) and digitized to a computer at a sampling rate of 500 Hz. […] Membrane potential was held at −30 or −50 mV for all recordings.
(§4) Disease-causing mutations (G551D and delF508) were made with PCR-based site-directed mutagenesis using the Pfu Ultra II (Agilent Technologies). […] The cDNA constructs of CFTR (G551D and delF508) were co-transfected with peGFP-C3 (Takara Bio Inc.) encoding the green fluorescent protein into CHO cells using PolyFect transfection reagent (QIAGEN). The transfected cells were transferred into 35 mm tissue culture dishes containing one layer of sterilized glass chips for cells to grow on. The transfected cells were incubated at 27° C. for 2-7 days before electrophysiological experiments were performed.
(§5) All patch-clamp experiments were carried out in the excised inside-out configuration. Micropipettes made of borosilicate capillary glass were pulled with a two-stage vertical puller (Narishige) and then fire-polished with a homemade microforge to reach a pipet resistance of 2-4 MΩ when the pipettes were filled with a standard inside-out pipet solution that contains: 140 mM N-Methyl-D-glucamine-Cl (NMDG-Cl), 2 mM MgCl2, 5 mM CaCl2) and 10 mM HEPES, adjusted to pH 7.4 with NMDG.

G551D-CFTR = molecular target: T1, G551D-CFTR (Homo sapiens, UniProt P13569, G551D); assay: Patch-clamp recording of G551D-CFTR currents in excised inside-out patches of transfected CHO cells; assay type: cell-based
T1 construct: The cDNA constructs of CFTR (G551D and delF508) were co-transfected with peGFP-C3; expressed in transfected cells; host or cells: CHO cells (ATCC), transient co-transfection with pEGFP-C3 (GFP as a separate marker, not fused)
T1 sequence (P13569 whole entry G551D, the tested form may be a part): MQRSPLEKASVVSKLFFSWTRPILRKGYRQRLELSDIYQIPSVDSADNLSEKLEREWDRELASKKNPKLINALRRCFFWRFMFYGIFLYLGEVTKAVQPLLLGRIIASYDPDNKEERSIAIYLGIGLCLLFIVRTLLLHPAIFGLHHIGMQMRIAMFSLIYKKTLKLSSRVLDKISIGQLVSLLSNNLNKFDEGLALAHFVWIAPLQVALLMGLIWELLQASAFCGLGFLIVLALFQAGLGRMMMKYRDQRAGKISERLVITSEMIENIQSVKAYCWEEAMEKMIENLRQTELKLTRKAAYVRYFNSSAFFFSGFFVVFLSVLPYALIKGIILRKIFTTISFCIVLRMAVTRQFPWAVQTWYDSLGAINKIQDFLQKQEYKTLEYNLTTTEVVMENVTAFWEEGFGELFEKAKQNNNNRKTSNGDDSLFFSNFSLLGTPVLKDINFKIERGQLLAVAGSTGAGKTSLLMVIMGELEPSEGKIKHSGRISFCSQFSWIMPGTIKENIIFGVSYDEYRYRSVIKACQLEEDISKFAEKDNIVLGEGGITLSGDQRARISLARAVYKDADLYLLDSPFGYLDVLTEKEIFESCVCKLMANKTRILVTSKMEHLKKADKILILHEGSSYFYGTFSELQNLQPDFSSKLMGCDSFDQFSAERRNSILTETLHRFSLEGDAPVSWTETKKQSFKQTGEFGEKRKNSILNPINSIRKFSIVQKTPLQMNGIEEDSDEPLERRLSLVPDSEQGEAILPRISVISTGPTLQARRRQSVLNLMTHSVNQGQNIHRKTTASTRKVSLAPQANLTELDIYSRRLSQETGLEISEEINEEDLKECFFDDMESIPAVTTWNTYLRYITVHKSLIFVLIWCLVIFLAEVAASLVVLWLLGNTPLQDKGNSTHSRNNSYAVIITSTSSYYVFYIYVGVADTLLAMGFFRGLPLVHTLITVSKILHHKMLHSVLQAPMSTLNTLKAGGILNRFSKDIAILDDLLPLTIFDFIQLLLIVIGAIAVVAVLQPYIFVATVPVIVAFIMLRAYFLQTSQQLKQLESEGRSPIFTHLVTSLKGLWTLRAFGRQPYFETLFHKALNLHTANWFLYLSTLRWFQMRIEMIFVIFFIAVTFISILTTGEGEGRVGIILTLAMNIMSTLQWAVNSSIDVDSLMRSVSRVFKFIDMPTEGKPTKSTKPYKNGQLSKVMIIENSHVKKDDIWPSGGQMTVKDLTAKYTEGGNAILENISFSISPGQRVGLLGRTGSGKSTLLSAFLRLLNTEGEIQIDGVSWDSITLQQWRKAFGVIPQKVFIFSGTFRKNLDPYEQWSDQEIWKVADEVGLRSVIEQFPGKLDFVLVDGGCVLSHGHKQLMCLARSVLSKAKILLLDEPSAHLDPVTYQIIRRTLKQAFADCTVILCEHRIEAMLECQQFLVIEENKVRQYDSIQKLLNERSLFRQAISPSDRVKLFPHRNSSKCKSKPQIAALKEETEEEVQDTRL
Source text: as §1, §2, §3, §4, §5

Chain of delF508-CFTR (P13569 with tags, fused parts or gaps DEL508-508): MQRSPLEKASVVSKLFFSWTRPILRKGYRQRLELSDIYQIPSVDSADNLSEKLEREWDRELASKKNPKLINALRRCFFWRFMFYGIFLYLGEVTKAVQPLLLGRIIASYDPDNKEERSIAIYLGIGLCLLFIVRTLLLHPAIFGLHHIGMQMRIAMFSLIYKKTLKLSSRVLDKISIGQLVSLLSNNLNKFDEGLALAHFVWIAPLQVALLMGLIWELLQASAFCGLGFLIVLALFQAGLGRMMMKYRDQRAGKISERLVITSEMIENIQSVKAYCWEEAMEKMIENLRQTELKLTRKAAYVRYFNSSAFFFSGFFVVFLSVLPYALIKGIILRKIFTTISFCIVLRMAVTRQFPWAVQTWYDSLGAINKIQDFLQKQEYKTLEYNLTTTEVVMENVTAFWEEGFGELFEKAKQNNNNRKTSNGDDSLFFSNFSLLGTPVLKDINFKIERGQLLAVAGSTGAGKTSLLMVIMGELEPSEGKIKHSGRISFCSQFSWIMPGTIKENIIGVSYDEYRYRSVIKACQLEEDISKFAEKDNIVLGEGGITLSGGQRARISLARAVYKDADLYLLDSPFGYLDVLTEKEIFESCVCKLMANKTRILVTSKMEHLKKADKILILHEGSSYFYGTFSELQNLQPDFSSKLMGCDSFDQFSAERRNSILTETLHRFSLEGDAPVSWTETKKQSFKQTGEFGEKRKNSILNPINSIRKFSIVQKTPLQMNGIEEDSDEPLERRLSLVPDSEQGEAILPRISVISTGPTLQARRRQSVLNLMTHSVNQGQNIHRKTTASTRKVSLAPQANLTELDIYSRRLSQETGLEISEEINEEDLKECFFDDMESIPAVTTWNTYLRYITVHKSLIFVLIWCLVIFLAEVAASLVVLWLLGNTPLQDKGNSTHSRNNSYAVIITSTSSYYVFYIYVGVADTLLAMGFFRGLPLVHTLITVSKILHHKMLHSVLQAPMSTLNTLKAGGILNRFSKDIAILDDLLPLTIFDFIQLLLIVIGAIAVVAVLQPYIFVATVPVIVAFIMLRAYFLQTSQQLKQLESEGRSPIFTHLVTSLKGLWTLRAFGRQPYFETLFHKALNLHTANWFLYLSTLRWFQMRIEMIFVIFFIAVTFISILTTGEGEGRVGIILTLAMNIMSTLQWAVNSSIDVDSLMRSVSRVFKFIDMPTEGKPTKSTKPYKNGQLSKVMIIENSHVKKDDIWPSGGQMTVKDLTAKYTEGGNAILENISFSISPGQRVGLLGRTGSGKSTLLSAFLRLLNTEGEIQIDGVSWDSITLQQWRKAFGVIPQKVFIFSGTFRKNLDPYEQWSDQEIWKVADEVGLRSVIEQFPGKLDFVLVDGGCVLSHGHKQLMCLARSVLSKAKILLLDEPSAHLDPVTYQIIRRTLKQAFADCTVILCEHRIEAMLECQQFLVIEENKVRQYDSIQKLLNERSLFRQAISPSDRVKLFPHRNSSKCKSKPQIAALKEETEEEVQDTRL

## CC(C)(C)c1cc(C(C)(C)C)c(NC(=O)c2c[nH]c3ccccc3c2=O)cc1O [VX-770, Ivacaftor, reference compound]
delF508-CFTR; 200 nM VX-770 alone
  fold increase of mean delF508-CFTR current: ~10 folds
delF508-CFTR; real-time current trace, FIG. 10
  rundown of delF508-CFTR current in the presence of the compound: immediately starts to decline
G551D-CFTR; 200 nM VX-770 alone
  fold increase of mean G551D-CFTR current: around 10 folds
G551D-CFTR; after activation by PKA and ATP
  effect on G551D-CFTR currents, compound alone: increased the current to approximately the same level as LZH-00014
